Earlier results in patent US20110166946A1, “METHOD OF PROMOTING AND SELLING COFFEE” (NESTEC S.A., priority 2008, published 2011).

Legend:
[1] = in vivo
[2] = preclinical models
[3] = after 50 μM chlorogenic acid intestinal perfusion, rat

Row | time of appearance of conjugated forms of CA in plasma after ingestion [2] | isoferulic acid detected in plasma [3] | SMILES | time of appearance in blood after ingestion [1] | time to reach baseline level after ingestion [1]
1 | – | – | Oc1cc(O)c2c(c1)O[C@H](c1cc(O)c(O)c(O)c1)[C@H](O)C2 [EGC, (−)-Epigallocatechin] | ≤ 30 min | ≤ 12 h
2 | 30 min | 0.12 µM | O=C(/C=C/c1ccc(O)c(O)c1)O[C@@H]1C[C@](O)(C(=O)O)C[C@@H](O)[C@H]1O [chlorogenic acid, 5-caffeoylquinic acid] | – | –
